Reference: patent publication US20020026053A1, “Novel 3-(substituted) -2- indolinones compounds and use thereof as inhibitors of protein kinase activity” (priority 1997, published 2002)

Each molecule was assayed against T1, Met receptor (EGFR/Met chimeric cells, EMR) (Homo sapiens, UniProt P08581) (assay: Met Autophosphorylation Assay).
T1 construct: expressed in transfected cells; the other entry of the earlier key: EGFR (P00533, Epidermal growth factor receptor)
Assay type: biochemical
Protocol: Met Autophosphorylation Assay
This assay determines Met tyrosine kinase activity by analyzing Met protein tyrosine kinase levels on the Met receptor.
a. HNTG (5× stock solution): Dissolve 23.83 g HEPES and 43.83 g NaCl in about 350 ml dH2O. Adjust pH to 7.2 with HCl or NaOH, add 500 ml glycerol and 10 ml Triton X-100, mix, add dH2O to 1 L total volume. To make 1 L of 1× working solution add 200 ml 5× stock solution to 800 ml dH2O, check and adjust pH as necessary, store at 4° C.
b. PBS (Dulbecco's Phosphate-Buffered Saline), Gibco Cat. # 450-1300EB (1× solution).
c. Blocking Buffer: in 500 ml dH2O place 100 g BSA, 12.1 g Tris-pH7.5, 58.44 g NaCl and 10 ml Tween-20, dilute to 1 L total volume.
d. Kinase Buffer: To 500 ml dH2O add 12.1 g TRIS (pH 7.2), 58.4 g NaCl, 40.7 g MgCl2 and 1.9 g EGTA; bring to 1 L total volume with dH2O.
e. PMSF (Phenylmethylsulfonyl fluoride), Sigma Cat. # P-7626, to 435.5 mg, add 100% ethanol to 25 ml total volume, vortex.
f. ATP (Bacterial Source), Sigma Cat. # A-7699, store powder at −20° C.; to make up solution for use, dissolve 3.31 mg in 1 ml dH2O.
g. RC-20H HRPO Conjugated Anti-Phosphotyrosine, Transduction Laboratories Cat. # E120H.
h. Pierce 1-Step Turbo™ B-ELISA (3,3′,5,5′-tetramethylbenzidine, Pierce Cat. # 34022.
i. H2SO4, add 1 ml conc.(18 N) to 35 ml dH2O.
j. TRIS HCL, Fischer Cat. # BP152-5; to 121.14 g of material, add 600 ml MilliQ H2O, adjust pH to 7.5 (or 7.2) with HCl, bring volume to 1 L with MilliQ H2O.
k. NaCl, Fischer Cat. # S271-10, make up 5M solution.
m. Na3VO4, Fischer Cat. # S454-50, to 1.8 g material add 80 ml MilliQ H2O, adjust pH to 10.0 with HCl or NaOH, boil in microwave, cool, check pH, repeat procedure until pH stable at 10.0, add MilliQ H2O to 100 ml total volume, make 1 ml aliquots and store at −80° C.
n. MgCl2, Fischer Cat. # M33-500, make up 1M solution.
o. HEPES, Fischer Cat. # BP310-500, to 200 ml MilliQ H2O, add 59.6 g material, adjust pH to 7.5, bring volume to 250 ml total, sterile filter.
p. Albumin, Bovine (BSA), Sigma Cat. # A-4503, to 30 grams material add sterile distilled water to make total volume of 300 ml, store at 4° C.
q. TBST Buffer: to approx. 900 ml dH2O in a 1 L graduated cylinder add 6.057 g TRIS and 8.766 g NaCl, when dissolved, adjust pH to 7.2 with HCl, add 1.0 ml Triton X-100 and bring to 1 L total volume with dH2O.
r. Goat Affinity purified antibody Rabbit IgG (whole molecule), Cappel Cat. # 55641.
s. Anti h-Met (C-28) rabbit polyclonal IgG antibody, Santa Cruz Chemical Cat. # SC-161.
t. Transiently Transfected EGFR/Met chimeric cells (EMR) (Komada, et al., Oncogene, 8:2381-2390 (1993).
u. Sodium Carbonate Buffer, ([…], Fischer Cat. # S495) to 10.6 g material add 800 ml MilliQ H2O, when dissolved adjust pH to 9.6 with NaOH, bring up to 1 L total volume with MilliQ H2O, filter, store at 4° C.
All of the following steps are conducted at room temperature unless it is specifically indicated otherwise. All ELISA plate washing is by rinsing 4× with TBST.
This procedure can be performed the night before or immediately prior to the start of receptor capture.
1. Quick thaw lysates in a 37° C. waterbath with a swirling motion until the last crystals disappear.
2. Lyse cell pellet with 1× HNTG containing 1 mM PMSF. Use 3 ml of HNTG per 15 cm dish of cells. Add ½ the calculated HNTG volume, vortex the tube for 1 min., add the remaining amount of HNTG, vortex for another min.
3. Balance tubes, centrifuge at 10,000× g for 10 min at 4° C.
4. Pool supernatants, remove an aliquot for protein determination.
5. Quick freeze pooled sample in dry ice/ethanol bath. This step is performed regardless of whether lysate will be stored overnight or used immediately following protein determination.
6. Perform protein determination using standard bicinchoninic acid (BCA) method (BCA Assay Reagent Kit from Pierce Chemical Cat. # 23225).
1. Coat Corning 96 well ELISA plates with 5 μg per well Goat anti-Rabbit antibody in Carbonate Buffer for a total well volume of 50 μl. Store overnight at 4° C. […]

T1 sequence (P08581 with tags, fused parts or gaps): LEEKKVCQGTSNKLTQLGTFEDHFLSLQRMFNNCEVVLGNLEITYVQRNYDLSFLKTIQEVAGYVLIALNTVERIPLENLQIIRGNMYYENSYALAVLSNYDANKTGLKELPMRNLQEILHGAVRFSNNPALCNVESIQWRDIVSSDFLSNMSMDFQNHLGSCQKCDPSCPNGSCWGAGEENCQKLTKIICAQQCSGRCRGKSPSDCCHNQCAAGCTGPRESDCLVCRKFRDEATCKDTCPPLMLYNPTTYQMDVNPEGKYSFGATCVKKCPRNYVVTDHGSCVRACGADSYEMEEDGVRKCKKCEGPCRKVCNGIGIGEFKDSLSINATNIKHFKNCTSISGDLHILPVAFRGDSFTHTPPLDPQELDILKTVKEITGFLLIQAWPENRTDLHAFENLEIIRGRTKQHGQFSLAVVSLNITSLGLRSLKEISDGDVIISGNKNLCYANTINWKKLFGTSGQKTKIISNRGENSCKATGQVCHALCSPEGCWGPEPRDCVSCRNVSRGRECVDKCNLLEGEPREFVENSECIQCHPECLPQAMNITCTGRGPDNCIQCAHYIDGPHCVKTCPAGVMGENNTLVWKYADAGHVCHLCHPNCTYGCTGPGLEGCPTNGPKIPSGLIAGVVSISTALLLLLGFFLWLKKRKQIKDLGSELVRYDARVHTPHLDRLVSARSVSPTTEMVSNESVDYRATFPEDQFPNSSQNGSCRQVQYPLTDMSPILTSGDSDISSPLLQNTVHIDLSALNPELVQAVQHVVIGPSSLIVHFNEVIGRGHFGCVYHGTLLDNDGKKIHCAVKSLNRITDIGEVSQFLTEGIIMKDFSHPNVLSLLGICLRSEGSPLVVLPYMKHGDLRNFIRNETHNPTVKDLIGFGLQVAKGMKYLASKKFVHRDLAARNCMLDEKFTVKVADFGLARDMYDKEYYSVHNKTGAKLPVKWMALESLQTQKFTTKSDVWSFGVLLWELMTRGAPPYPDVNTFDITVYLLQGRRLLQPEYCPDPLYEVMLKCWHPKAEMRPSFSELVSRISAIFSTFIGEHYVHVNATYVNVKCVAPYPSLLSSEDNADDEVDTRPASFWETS

| Compound | Met Kinase % Inhibition (P.130) |
| --- | --- |
| CCOC(=O)c1c(C)[nH]c(C=C2C(=O)Nc3c(Br)cc(Br)c(C)c32)c1C [10718/H02] | 31.5% |
| COc1cc(Br)c(O)c(C=C2C(=O)Nc3c(Br)cc(Br)c(C)c32)c1 [10718/H03] | 90.8% |
| Cc1c(Br)cc(Br)c2c1C(=Cc1ccc3ccccc3c1O)C(=O)N2 [10718/H04] | 84.3% |
| CCOC(=O)CCc1c(C(=O)OCC)[nH]c(C=C2C(=O)Nc3c(Br)cc(Br)c(C)c32)c1CC(=O)OCC [10718/H05] | 13.5% |
| CCOC(=O)c1cc(C=C2C(=O)Nc3c(Br)cc(Br)c(C)c32)oc1C [10718/H06] | 32.2% |
| COC(=O)c1[nH]c(C)c(C=C2C(=O)Nc3c(Br)cc(Br)c(C)c32)c1C(=O)OC [10718/H07] | 52.7% |
| Cc1c(Br)cc(Br)c2c1C(=Cc1ccc(Cl)c([N+](=O)[O-])c1)C(=O)N2 [10718/H08] | 14.4% |
| CCOc1cccc(C=C2C(=O)Nc3c(Br)cc(Br)cc32)c1O [10734/A02] | 51.1% |
| O=C1Nc2c(Br)cc(Br)cc2C1=Cc1cc(Cl)cc(Cl)c1O [10734/A03] | 87.8% |
| O=C1Nc2c(Br)cc(Br)cc2C1=Cc1cc(Cl)ccc1O [10734/A04] | 68.0% |
| CCN(CC)c1ccc(C=C2C(=O)Nc3c(Br)cc(Br)cc32)c(O)c1 [10734/A05] | 69.9% |
| O=C1Nc2c(Br)cc(Br)cc2C1=Cc1ccc([N+](=O)[O-])cc1 [10734/A06] | 46.9% |
| O=C1Nc2c(Br)cc(Br)cc2C1=Cc1cc(Br)cc(Br)c1O [10734/A07] | 89.3% |
| O=C1Nc2c(Br)cc(Br)cc2C1=Cc1cccc(F)c1O [10734/A08] | 71.5% |
| O=C1Nc2c(Br)cc(Br)cc2C1=Cc1ccc(O)c(Br)c1 [10734/A09] | 88.4% |
| CC(C)(C)c1ccc(C=C2C(=O)Nc3c(Br)cc(Br)cc32)cc1 [10734/A10] | 55.4% |
| O=C1Nc2c(Br)cc(Br)cc2C1=Cc1ccc(Br)s1 [10734/A11] | 51.9% |
| CCOc1cccc(C=C2C(=O)Nc3ccc(I)cc32)c1O [10734/B02] | 61.9% |
| O=C1Nc2ccc(I)cc2C1=Cc1cc(Cl)cc(Cl)c1O [10734/B03] | 90.1% |
| O=C1Nc2ccc(I)cc2C1=Cc1cc(Cl)ccc1O [10734/B04] | 88.4% |
| CCN(CC)c1ccc(C=C2C(=O)Nc3ccc(I)cc32)c(O)c1 [10734/B05] | 67.8% |
| O=C1Nc2ccc(I)cc2C1=Cc1ccc([N+](=O)[O-])cc1 [10734/B06] | 91.2% |
| O=C1Nc2ccc(I)cc2C1=Cc1cc(Br)cc(Br)c1O [10734/B07] | 93.2% |
| O=C1Nc2ccc(I)cc2C1=Cc1cccc(F)c1O [10734/B08] | 56.1% |
| O=C1Nc2ccc(I)cc2C1=Cc1ccc(O)c(Br)c1 [10734/B09] | 94.3% |
| CC(C)(C)c1ccc(C=C2C(=O)Nc3ccc(I)cc32)cc1 [10734/B10] | 82.6% |
| O=C1Nc2ccc(I)cc2C1=Cc1ccc(Br)s1 [10734/B11] | 83.6% |

| Compound | Met Kinase % Inhibition (P.130) |
| --- | --- |
| CCOc1cccc(C=C2C(=O)Nc3ccc(Br)c(C)c32)c1O [10734/C02] | 78.6% |
| Cc1c(Br)ccc2c1C(=Cc1cc(Cl)cc(Cl)c1O)C(=O)N2 [10734/C03] | 88.2% |
| Cc1c(Br)ccc2c1C(=Cc1cc(Cl)ccc1O)C(=O)N2 [10734/C04] | 90.7% |
| CCN(CC)c1ccc(C=C2C(=O)Nc3ccc(Br)c(C)c32)c(O)c1 [10734/C05] | 52.7% |
| Cc1c(Br)ccc2c1C(=Cc1ccc([N+](=O)[O-])cc1)C(=O)N2 [10734/C06] | 48.3% |
| Cc1c(Br)ccc2c1C(=Cc1cc(Br)cc(Br)c1O)C(=O)N2 [10734/C07] | 96.8% |
| Cc1c(Br)ccc2c1C(=Cc1cccc(F)c1O)C(=O)N2 [10734/C08] | 93.2% |
| Cc1c(Br)ccc2c1C(=Cc1ccc(O)c(Br)c1)C(=O)N2 [10734/C09] | 88.6% |
| Cc1c(Br)ccc2c1C(=Cc1ccc(C(C)(C)C)cc1)C(=O)N2 [10734/C10] | 11.6% |
| Cc1c(Br)ccc2c1C(=Cc1ccc(Br)s1)C(=O)N2 [10734/C11] | 23.9% |
| CCOc1cccc(C=C2C(=O)Nc3ccc(S(=O)(=O)NC)cc32)c1O [10734/D02] | 46.0% |
| CNS(=O)(=O)c1ccc2c(c1)C(=Cc1cc(Cl)cc(Cl)c1O)C(=O)N2 [10734/D03] | 78.6% |
| CNS(=O)(=O)c1ccc2c(c1)C(=Cc1cc(Cl)ccc1O)C(=O)N2 [10734/D04] | 46.9% |
| CCN(CC)c1ccc(C=C2C(=O)Nc3ccc(S(=O)(=O)NC)cc32)c(O)c1 [10734/D05] | 55.0% |
| CNS(=O)(=O)c1ccc2c(c1)C(=Cc1ccc([N+](=O)[O-])cc1)C(=O)N2 [10734/D06] | 30.6% |
| CNS(=O)(=O)c1ccc2c(c1)C(=Cc1cc(Br)cc(Br)c1O)C(=O)N2 [10734/D07] | 92.0% |
| CNS(=O)(=O)c1ccc2c(c1)C(=Cc1cccc(F)c1O)C(=O)N2 [10734/D08] | 49.8% |
| CNS(=O)(=O)c1ccc2c(c1)C(=Cc1ccc(O)c(Br)c1)C(=O)N2 [10734/D09] | 88.0% |
| CNS(=O)(=O)c1ccc2c(c1)C(=Cc1ccc(C(C)(C)C)cc1)C(=O)N2 [10734/D10] | 20.6% |
| CNS(=O)(=O)c1ccc2c(c1)C(=Cc1ccc(Br)s1)C(=O)N2 [10734/D11] | 33.9% |
| CCOc1cccc(C=C2C(=O)Nc3ccc(S(=O)(=O)Nc4ccc(C(F)(F)F)cc4)cc32)c1O [10734/E02] | 66.9% |
| O=C1Nc2ccc(S(=O)(=O)Nc3ccc(C(F)(F)F)cc3)cc2C1=Cc1cc(Cl)cc(Cl)c1O [10734/E03] | 99.3% |
| O=C1Nc2ccc(S(=O)(=O)Nc3ccc(C(F)(F)F)cc3)cc2C1=Cc1cc(Cl)ccc1O [10734/E04] | 88.9% |
| CCN(CC)c1ccc(C=C2C(=O)Nc3ccc(S(=O)(=O)Nc4ccc(C(F)(F)F)cc4)cc32)c(O)c1 [10734/E05] | 63.6% |
| O=C1Nc2ccc(S(=O)(=O)Nc3ccc(C(F)(F)F)cc3)cc2C1=Cc1ccc([N+](=O)[O-])cc1 [10734/E06] | 50.6% |
| O=C1Nc2ccc(S(=O)(=O)Nc3ccc(C(F)(F)F)cc3)cc2C1=Cc1cc(Br)cc(Br)c1O [10734/E07] | 100.8% |
